Reference: paper PMC9942557, “Bolaamphiphile Analogues of 12-bis-THA Cl2 Are Potent Antimicrobial Therapeutics with Distinct Mechanisms of Action against Bacterial, Mycobacterial, and Fungal Pathogens” (mSphere, 2022)
Where two headings read alike, the source gives them in different places.

Key:
C. glabrata 8018 = test: Broth microdilution MIC; assay type: cell-based; conditions: C. glabrata 8018
[1] = tested on: VR Enterococcus faecium NCTC 12204; test: Broth microdilution MIC; assay type: cell-based; conditions: VR Enterococcus faecium NCTC 12204
C. krusei 3876 = test: Broth microdilution MIC; assay type: cell-based
C. albicans 3281 = test: Broth microdilution MIC; assay type: cell-based, Candida albicans; conditions: C. albicans 3281
[2] = tested on: Klebsiella pneumoniae NCTC 13368; test: Broth microdilution MIC; assay type: cell-based
P. aeruginosa RP73 = test: Checkerboard synergy assay; assay type: cell-based, Pseudomonas aeruginosa
[3] = tested on: Acinetobacter baumannii AYE; test: Broth microdilution MIC; assay type: cell-based; conditions: Acinetobacter baumannii AYE
[4] = tested on: EMR Staphylococcus aureus 15 NCTC 13616; test: Broth microdilution MIC; assay type: cell-based; conditions: EMR Staphylococcus aureus 15 NCTC 13616
[5] = tested on: Escherichia coli NCTC 12923; test: Broth microdilution MIC; assay type: cell-based
C. parapsilosis = test: Broth microdilution MIC; assay type: cell-based
M. tuberculosis Bleupan [6] = test: microbe, parasite or virus in culture; assay type: cell-based, Mycobacterium tuberculosis
M. smegmatis mc^2 155 = test: Broth microdilution MIC (Middlebrook 7H9); assay type: cell-based, Mycobacterium smegmatis
Klebsiella pneumoniae M6 = test: Broth microdilution MIC; assay type: cell-based
[7] = tested on: Acinetobacter baumannii ATCC 17978; test: Broth microdilution MIC; assay type: cell-based
[8] = tested on: Pseudomonas aeruginosa NCTC 13437; test: Broth microdilution MIC; assay type: cell-based
[9] = tested on: VS Enterococcus faecalis NCTC 775; test: Broth microdilution MIC; assay type: cell-based
[10] = tested on: Pseudomonas aeruginosa PAO1; test: Broth microdilution MIC; assay type: cell-based
C. auris temp probe = test: Broth microdilution MIC; assay type: cell-based, Candida auris; conditions: C. auris temp probe
C. tropicalis 8760 = test: Broth microdilution MIC; assay type: cell-based; conditions: C. tropicalis 8760
M. tuberculosis Bleupan [11] = assay type: in vivo, Galleria mellonella
HeLa = test: In vitro toxicity for cell line; assay type: cell-based, human; conditions: average ± standard error from 3 independent repeats
Text: (§1) TABLE 2 Toxicity of bolaamphiphiles for two cell lines^a | column: Toxicity (EC50 [μg/ml]) of: / 12-bis-THA Cl2; Toxicity (EC50 [μg/ml]) of: / Dequalinium; Toxicity (EC50 [μg/ml]) of: / Quino-bola; Toxicity (EC50 [μg/ml]) of: / Penta-bola; Toxicity (EC50 [μg/ml]) of: / Hepta-bola; Toxicity (EC50 [μg/ml]) of: / Octa-bola; Toxicity (EC50 [μg/ml]) of: / Octa-C10; Toxicity (EC50 [μg/ml]) of: / Octa-C8; Toxicity (EC50 [μg/ml]) of: / Octa-C6

HEK293 = test: In vitro toxicity for cell line; assay type: cell-based, human; conditions: HEK293; average ± standard error from 3 independent repeats
Text: as §1

C. parapsilosis 3209 = test: Broth microdilution MIC; assay type: cell-based
C. albicans 3179 = test: Broth microdilution MIC; assay type: cell-based, Candida albicans; conditions: C. albicans 3179
[12] = tested on: VR Enterococcus faecalis NCTC 12201; test: Broth microdilution MIC; assay type: cell-based; conditions: VR Enterococcus faecalis NCTC 12201
[13] = tested on: EMR Staphylococcus aureus 16 NCTC 13277; test: Broth microdilution MIC; assay type: cell-based; conditions: EMR Staphylococcus aureus 16 NCTC 13277
Dynamic light scattering = assay type: physicochemical
Protocol: Stock solutions of bolalipids were prepared by dispersing the powder in ultrapure water, then stirring vigorously by vortexing, and sonicating in a 40°C bath sonicator for 20 min. The concentration of each stock solution corresponds to the highest solubility achieved in water for each bolalipid, using the method described above. DLS experiments were performed on a Malvern Zetasizer Nano (Malvern Instruments, Worcestershire, UK) in back-scattering mode at 20°C. There were three independent measurements of each sample and 12 runs for each measurement, with 10 s taken for each run. The attenuator index and measurement position were automatically adjusted. Fifty microliters of each sample was transferred into polystyrene semi-microcuvettes for determination of UV and visible wavelengths (Sarstedt).

K. pneumoniae M6 = test: Fixed-concentration (0.25× MIC bolalipid) synergy broth microdilution; assay type: cell-based; conditions: Klebsiella pneumoniae
P. aeruginosa PAO1 [14] = test: Checkerboard synergy assay; assay type: cell-based, Pseudomonas aeruginosa
[15] = tested on: Pseudomonas aeruginosa RP73; test: Intrahemocoelic G. mellonella infection model; assay type: in vivo, Galleria mellonella; conditions: 96 h
A. baumannii AYE = test: Fixed-concentration (0.25× MIC bolalipid) synergy broth microdilution; assay type: cell-based; conditions: Acinetobacter baumannii
P. aeruginosa NCTC 13437 [16] = test: as above; assay type: cell-based, Pseudomonas aeruginosa; conditions: Pseudomonas aeruginosa, NCTC13437, P. aeruginosa NCTC 13437, read-out: MIC of aminoglycoside
P. aeruginosa NCTC 13437 [17] = test: Checkerboard synergy assay; assay type: cell-based, Pseudomonas aeruginosa
P. aeruginosa PAO1 [18] = test: Fixed-concentration (0.25× MIC bolalipid) synergy broth microdilution; assay type: cell-based, Pseudomonas aeruginosa; conditions: Pseudomonas aeruginosa, PAO1, P. aeruginosa PAO1, read-out: MIC of aminoglycoside
K. pneumoniae NCTC 13368 = test: as above; assay type: cell-based, Klebsiella pneumoniae; conditions: Klebsiella pneumoniae, NCTC13368, K. pneumoniae NCTC 13368, read-out: MIC of aminoglycoside
A. baumannii ATCC 17978 = test: as above; assay type: cell-based; conditions: Acinetobacter baumannii, ATCC17978, A. baumannii ATCC 17978, read-out: MIC of aminoglycoside
E. coli NCTC 12923 = test: as above; assay type: cell-based; conditions: Escherichia coli, NCTC12923, E. coli NCTC 12923, read-out: MIC of aminoglycoside
[19] = tested on: Pseudomonas aeruginosa RP73; test: In vitro pharmacodynamic (PD) assay; conditions: P. aeruginosa RP73; combination 2:1 (wt/wt)
Protocol: In vitro PD assays were performed with Pseudomonas aeruginosa RP73 cultured in Roswell Park Memorial Institute 1640 medium (RPMI) supplemented with 5% Mueller-Hinton broth (MHB) ([35]). Bacteria were cultured overnight in 10 mL of RPMI–5% MHB at 37°C and diluted just prior to plate inoculation to an OD600 of 0.002. Stock solutions of colistin or tobramycin were prepared in sterile MilliQ water at a concentration of 200× MIC. Octa-bola was prepared in methanol at 2,000× MIC and diluted in water to 200× MIC. A dilution series was made in the top row of a polypropylene 96-well plate from 200× MIC to 0.2× MIC in a volume of 100 μL, to which 100 μL of the bacterial suspension was added to have a total of 1 × 10^6 log-phase CFU in 200 μL. The first time zero sample was taken <30 s after addition of bacteria to the plate, with further samples taken at appropriate intervals thereafter. […] Fifteen microliters was removed from each well, diluted 1:1,000 in phosphate-buffered saline, and plated onto RPMI–5% MH agar plates. The plates were incubated at 37°C overnight for CFU counting.
CFU data were log10 transformed, and the bacterial net growth rate was determined from the increase or decrease in CFU during the time of exposure to the antibiotics as the coefficient of a linear regression of log10 CFU as a function of time. The intercept of the regression was fixed by forcing the regression lines through the first CFU measurement (0 min) at a given antimicrobial concentration. The pharmacodynamic function according to Regoes et al. ([36]) describes the relationship between bacterial net growth rate (ψ) and the concentration of an antimicrobial (a): ψmax − ([ψmax − ψmin][a/zMIC])^κ/([a/zMIC]^κ − [ψmin/ψmax]). Fitting this function to the net bacterial growth rates in OriginPro 2020 (OriginLab Corporation, Northampton, MA) generates the parameters ψmin and ψmax (minimum and maximum growth rates, respectively), zMIC (the pharmacodynamic MIC), and κ (a measure of the cooperativity). […]

[20] = No bola, read-out: MIC of aminoglycoside
[21] = in the presence of 0.25× MIC Octa-Bola, read-out: MIC of aminoglycoside
[22] = in the presence of 0.25× MIC Octa-C6, read-out: MIC of aminoglycoside
[23] = in the presence of 0.25× MIC Octa-C10, read-out: MIC of aminoglycoside
[24] = in the presence of 0.25× MIC Octa-Bola
[25] = in the presence of 0.25× MIC Octa-C6
[26] = in the presence of 0.25× MIC Octa-C10

For `Nc1c2c([n+](CCCCCC[n+]3c4c(c(N)c5ccccc53)CCCCCC4)c3ccccc13)CCCCCC2` [Octa-C6], the MIC (C. glabrata 8018) was >8 µg/mL, the MIC [1] was 16 µg/mL and the MIC (C. krusei 3876) was >8 µg/mL. The MIC (C. albicans 3281) was 8 µg/mL, the MIC [2] was >32 µg/mL and the “MIC alone Bolalipid” value (P. aeruginosa RP73) was 64 µg/mL. The MIC [3] was >32 µg/mL, the MIC [4] was 16 µg/mL and the MIC [5] was >32 µg/mL. For the same compound, the MIC (C. parapsilosis) was >8 µg/mL, the MIC (M. tuberculosis Bleupan [6]) was 0.46 µg/mL and the MIC (M. smegmatis mc^2 155) was 1.66 µg/mL. For the same compound, the MIC (Klebsiella pneumoniae M6) was >32 µg/mL, the MIC [7] was >32 µg/mL and the MIC [8] was >32 µg/mL. For the same compound, the MIC [9] was 32 µg/mL, the MIC [10] was >32 µg/mL and the MIC (C. auris temp probe) was >8 µg/mL. For the same compound, the MIC (C. tropicalis 8760) was 8 µg/mL, the protection (M. tuberculosis Bleupan [11]; all doses tested) was “did not provide protection” and the survival (M. tuberculosis Bleupan [11]; three lower doses (0.01, 0.1, and 1 mg/kg)) was “survival was significantly worse”. For the same compound, the “Toxicity (EC50)” value (HeLa) was 64.3 ± 3.6 µg/mL, the “Toxicity (EC50)” value (HEK293) was 40.0 ± 15.6 µg/mL and the MIC (C. parapsilosis 3209) was >8 µg/mL. For the same compound, the MIC (C. albicans 3179) was 8 µg/mL, the MIC [12] was 16 µg/mL and the MIC [13] was 16 µg/mL. The “nanoparticle formation (DLS)” value (Dynamic light scattering; any conditions) was “Under no conditions did Octa-C6 give evidence of nanoparticle formation” and the derived count rate (Dynamic light scattering; concentrations up to 1.65 mM) was ≤ 26.3 kcps.

`NC[C@H]1O[C@H](O[C@H]2[C@H](O)[C@@H](O[C@H]3O[C@H](CO)[C@@H](O)[C@H](N)[C@H]3O)[C@H](N)C[C@@H]2N)[C@H](N)C[C@@H]1O` [Tobramycin] gave an MIC (K. pneumoniae M6; [20]) of 1 µg/mL, an MIC (K. pneumoniae M6; [21]) of 0.5 µg/mL and an MIC (K. pneumoniae M6; [22]) of 1 µg/mL. For the same compound, the MIC (K. pneumoniae M6; [23]) was 0.25 µg/mL, the “MIC alone Antibiotic” value (P. aeruginosa PAO1 [14]) was 0.5 µg/mL and the “MIC alone Antibiotic” value (P. aeruginosa RP73) was 2 µg/mL. For the same compound, the larvae rescued ([15]; 5 mg/kg) was 37.5%, the larvae rescued ([15]; 50 mg/kg, 1 × 10^2 CFU per larva) was 97.5% and the MIC (A. baumannii AYE; [20]) was 64 µg/mL. The MIC (A. baumannii AYE; [21]) was 8 µg/mL, the MIC (A. baumannii AYE; [22]) was 16 µg/mL and the MIC (A. baumannii AYE; [23]) was 4 µg/mL. The MIC (P. aeruginosa NCTC 13437 [16]; No bola) was 64 µg/mL, the MIC (P. aeruginosa NCTC 13437 [16]; [24]) was 8 µg/mL and the MIC (P. aeruginosa NCTC 13437 [16]; [25]) was 8 µg/mL. The MIC (P. aeruginosa NCTC 13437 [16]; [26]) was 4 µg/mL, the “MIC alone Antibiotic” value (P. aeruginosa NCTC 13437 [17]) was 64 µg/mL and the MIC (P. aeruginosa PAO1 [18]; No bola) was 1 µg/mL. For the same compound, the MIC (P. aeruginosa PAO1 [18]; [24]) was 0.5 µg/mL, the MIC (P. aeruginosa PAO1 [18]; [25]) was 0.5 µg/mL and the MIC (P. aeruginosa PAO1 [18]; [26]) was 0.25 µg/mL. It also gave an MIC (K. pneumoniae NCTC 13368; No bola) of 8 µg/mL, an MIC (K. pneumoniae NCTC 13368; [24]) of 4 µg/mL and an MIC (K. pneumoniae NCTC 13368; [25]) of 16 µg/mL. The MIC (K. pneumoniae NCTC 13368; [26]) was 8 µg/mL, the MIC (A. baumannii ATCC 17978; No bola) was 2 µg/mL and the MIC (A. baumannii ATCC 17978; [24]) was 0.125 µg/mL. The MIC (A. baumannii ATCC 17978; [25]) was 0.5 µg/mL, the MIC (A. baumannii ATCC 17978; [26]) was 0.5 µg/mL and the MIC (E. coli NCTC 12923; No bola) was 2 µg/mL. It also gave an MIC (E. coli NCTC 12923; [24]) of 1 µg/mL, an MIC (E. coli NCTC 12923; [25]) of 2 µg/mL and an MIC (E. coli NCTC 12923; [26]) of 1 µg/mL. The “bactericidal activity (minimum growth rate, ψmin)” value [19] was “weakly bactericidal”.
